Source: patent US11407719B2, “Anti-inflammatory agents” (Resverlogix Corp., priority 2009, dated 2022)

Tests used:
[1] = tested on: VCAM-1 mRNA; test: Quantification of hVCAM mRNA; type: cell-based, human; design: key: Active: an active compound is one that causes a ≥20% inhibition in VCAM-1 mRNA at a concentration less than or equal to 10 μM; -1 mRNA at a concentration less than or equal to 10 μM; conditions: VCAM-1 mRNA by real-time PCR; HUVECs, 1 h pretreatment, tumor necrosis factor-α stimulation 24 h; concentration ≤10 μM
Summary of the method: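 HUVECs were pretreated 1 h with compound, then stimulated with TNF-α and harvested 24 h later. Isolated mRNA went into one-step qRT-PCR. hVCAM Ct values were normalized to an internal control and expressed as fold induction relative to control.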

[2] = tested on: hIL-6 mRNA; test: Quantification of hIL-6 mRNA; type: cell-based, human; design: key: Active: an active compound is one that causes a ≥20% inhibition in IL-6 mRNA at a concentration less than or equal to 10 μM; conditions: IL-6 mRNA by real-time PCR; differentiated U937 cells, 1 h pretreatment, lipopolysaccharide stimulation 3 h; concentration ≤10 μM
Summary of the method: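 U937 cells, differentiated for 3 days, were pretreated with compound for 1 h and then stimulated with E. coli LPS for 3 h at 37 °C. IL-6 mRNA was quantified by one-step qRT-PCR, with Ct normalized to an internal control, and fold induction was expressed relative to control.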

Row | Compound | melting point [°C] | Inhibition of VCAM-1 expression [1] | Inhibition of IL-6 expression [2]
1 | COc1cc(OC)c2c(=O)[nH]c(-c3cc(C)c(OCCN4C(=O)NC(c5ccccc5)C4=O)c(C)c3)nc2c1 (stereo not drawn) [3-(2-(4-(5,7-Dimethoxy-4-oxo-3,4-dihydroquinazolin-2-yl)-2,6-dimethylphenoxy)ethyl)-5-phenylimidazolidine-2,4-dione] | 219.6 to 221.4 | Active | Active
2 | COc1cc(OC)c2c(=O)[nH]c(-c3cc(C)c(OCCn4ccnc4)c(C)c3)nc2c1 [2-(4-(2-(1H-Imidazol-1-yl)ethoxy)-3,5-dimethylphenyl)-5,7-dimethoxyquinazolin-4(3H)-one] | 218 to 219 | Active | Active
3 | COc1cc(OC)c2c(=O)[nH]c(-c3cc(C)c(OCCN4CCN(C)CC4)c(C)c3)nc2c1 [2-(3,5-Dimethyl-4-(2-(4-methylpiperazin-1-yl)ethoxy)phenyl)-5,7-dimethoxyquinazolin-4(3H)-one] | 180 to 182 | Active | Active
4 | COc1cc(OCCN2CCCC2)cc(-c2nc3cc(OC)cc(OC)c3c(=O)[nH]2)c1 [5,7-Dimethoxy-2-(3-methoxy-5-(2-(pyrrolidin-1-yl)ethoxy)phenyl)quinazolin-4(3H)-one] | 159 to 160 | Active | Active
5 | COc1cc(OCCOCc2ccccc2)cc2nc(-c3ccncc3)[nH]c(=O)c12 [7-(2-(Benzyloxy)ethoxy)-5-methoxy-2-(pyridin-4-yl)quinazolin-4(3H)-one] | 228.2 to 229.9 | Active | Active
6 | COc1cc(OC)c2c(=O)[nH]c(-c3cc(C)c(OCCN4CCCCCC4)c(C)c3)nc2c1 [2-(4-(2-(Azepan-1-yl)ethoxy)-3,5-dimethylphenyl)-5,7-dimethoxyquinazolin-4(3H)-one] | 198 to 199 | Active | Active
7 | COCCOc1cc(OCCOC)c2c(=O)[nH]c(-c3cc(C)nc(C)c3)nc2c1 [2-(2,6-Dimethylpyridin-4-yl)-5,7-bis(2-methoxyethoxy)quinazolin-4(3H)-one] | 149.8 to 151.4 | Active | Active
8 | COc1cccc2nc(-c3cc(C)c(OCCN4CCCC4)c(C)c3)[nH]c(=O)c12 [2-(3,5-Dimethyl-4-(2-(pyrrolidin-1-yl)ethoxy)phenyl)-5-methoxyquinazolin-4(3H)-one] | 157 to 158 | Active | Active
9 | COc1ccc2nc(-c3cc(C)c(OCCN4CCCC4)c(C)c3)[nH]c(=O)c2c1 [2-(3,5-Dimethyl-4-(2-(pyrrolidin-1-yl)ethoxy)phenyl)-6-methoxyquinazolin-4(3H)-one] | 201.2 to 203.1 | Active | Active
10 | COc1cc(OC)cc(-c2nc3ccc(Nc4ccncc4)cc3c(=O)[nH]2)c1 [2-(3,5-Dimethoxyphenyl)-6-(pyridin-4-ylamino)quinazolin-4(3H)-one] | 289 to 290 | Inactive | Active

Continued, in another order:

Row | melting point [°C] | Compound | Inhibition of VCAM-1 expression [1] | Inhibition of IL-6 expression [2]
11 | 248.5 to 249.3 | Cc1cc(-c2nc3ccc(CCN4CCOCC4)cc3c(=O)[nH]2)cc(C)n1 [2-(2,6-Dimethylpyridin-4-yl)-6-(2-morpholinoethyl)quinazolin-4(3H)-one] | Inactive | Active
12 | 260 to 262 | COCCOc1cc(OC)c2c(=O)[nH]c(-c3ccnc(C)c3)nc2c1 [5-methoxy-7-(2-methoxyethoxy)-2-(2-methylpyridin-4-yl)quinazolin-4(3H)-one] | Active | Active
13 | 190 to 191 | COc1cc(OCCN2CCCC2)c2c(=O)[nH]c(-c3cc(C)nc(C)c3)nc2c1 [2-(2,6-Dimethylpyridin-4-yl)-7-methoxy-5-(2-(pyrrolidin-1-yl)ethoxy)quinazolin-4(3H)-one] | Active | Active
14 | 219 to 221 | COc1cc(OC)c2c(=O)[nH]c(-c3cc(C)c(OCCN4C(=O)CN(C(C)C)C4=O)c(C)c3)nc2c1 [3-(2-(4-(5,7-Dimethoxy-4-oxo-3,4-dihydroquinazolin-2-yl)-2,6-dimethylphenoxy)ethyl)-1-isopropylimidazolidine-2,4-dione] | Active | Active
15 | 124 to 125 | Cc1cc(-c2nc3cc(OCCOC(C)C)cc(OCCOC(C)C)c3c(=O)[nH]2)cc(C)n1 [2-(2,6-dimethylpyridin-4-yl)-5,7-bis(2-isopropoxyethoxy)quinazolin-4(3H)-one] | Active | Active
16 | 230 to 231 | COc1cc(OC)c2c(=O)[nH]c(-c3ccc(OCCN4CCCC4)c(C)c3)nc2c1 [5,7-Dimethoxy-2-(3-methyl-4-(2-(pyrrolidin-1-yl)ethoxy)phenyl)quinazolin-4(3H)-one] | Active | Active
17 | 317 to 318 | COc1cc(OC)c2c(=O)[nH]c(-c3ccc(CN4C(=O)CNC4=O)cc3)nc2c1 [3-(4-(5,7-Dimethoxy-4-oxo-3,4-dihydroquinazolin-2-yl)benzyl)imidazolidine-2,4-dione] | Active | Active
18 | 106.9 to 109.1 | COc1cc(OC)c2c(=O)[nH]c(-c3cc(C)cc(OCCO)c3)nc2c1 [2-(3-(2-Hydroxyethoxy)-5-methylphenyl)-5,7-dimethoxyquinazolin-4(3H)-one] | Active | Active
19 | 267 to 268 | Cc1cc(-c2nc3ccc(CN4CCOCC4)cc3c(=O)[nH]2)ccn1 [2-(2-methylpyridin-4-yl)-6-(morpholinomethyl)quinazolin-4(3H)-one] | Inactive | Active
20 | 178 to 180 | COc1cc(OCCOCc2ccccc2)cc2nc(-c3cc(C)nc(C)c3)[nH]c(=O)c12 [7-(2-(Benzyloxy)ethoxy)-2-(2,6-dimethylpyridin-4-yl)-5-methoxyquinazolin-4(3H)-one] | Active | Active
21 | 228 to 230 | COc1cc(OC)c2c(=O)[nH]c(-c3cc(C)c(OCCN4CCCC4)c(C)c3)nc2n1 [2-(3,5-Dimethyl-4-(2-(pyrrolidin-1-yl)ethoxy)phenyl)-5,7-dimethoxypyrido[2,3-d]pyrimidin-4(3H)-one] | Active | Active
22 | 209 to 210 | Cc1cc(-c2nc3cc(Cl)cc(Cl)c3c(=O)[nH]2)cc(C)c1OCCN1CCCC1 [5,7-Dichloro-2-(3,5-dimethyl-4-(2-(pyrrolidin-1-yl)ethoxy)phenyl)quinazolin-4(3H)-one] | Active | Active
